From patent EP1081186A1, “Stabilized aqueous acrylamide polymer composition and photographic element containing the composition” (EASTMAN KODAK COMPANY (a New Jersey corporation), priority 1999, dated 2001)

Test: Inherent viscosity stability of aqueous acrylamide polymer solutions on keeping (capillary viscometer)
Assay type: physicochemical
Conditions: 0.33 % added to 15 % copolymer solution; at room temperature and at 50°C; compared with isopropanol
Procedure: In the following examples the inherent viscosities of the solutions were measured in a capillary viscometer at a polymer concentration of 0.25 g/dl using aqueous 0.1M sodium sulfate as the solvent. The measurements were carried out at a temperature of 25 degrees C. Inherent viscosity (I.V.) is calculated as: I.V. = ln( t / t0 )/c where t is the polymer solution flow time through the capillary, t0 is the solvent flow time, and c is the polymer concentration. [formula]
Initial Inherent Viscosities ranged from 2.00 to 2.12 dL/g. Percentage Change was defined with the following equation: %Change=(I.V.(t)-I.V.(0))/(I.V.(0))× 100 [formula] where I.V.(0) is the initial inherent viscosity and I.V.(t) is the inherent viscosity of the polymer at time t.
Initial Inherent Viscosities range from 1.90 to 2.00 dL/g. The I.V. change is determined as previously defined.

Question: Which inherent viscosity stability does the source give for `CC(C)(C)c1cccc(O)c1O` [t-butyl catechol] here?
Answer: equal to or better than ten times the concentration of isopropanol
